From the NIST ThermoML archive (doi:10.1021/je049762q)
Several values for one entry are separate records, joined by “and”; a condition that tells them apart may be missing. Equal values may be shown once.

Test: molar heat capacity at constant pressure
Conditions: 101.33 kPa

Brc1cc(Br)cc(Br)c1 [1,3,5-tribromobenzene]
molar heat capacity at constant pressure
Conditions	Crystal	Liquid
6.52 K	1.72 J/K/mol	–
6.88 K	2.15 J/K/mol	–
6.95 K	2.19 J/K/mol	–
7.15 K	2.56 J/K/mol	–
7.61 K	3.13 J/K/mol	–
7.91 K	3.91 J/K/mol	–
8.43 K	4.55 J/K/mol	–
8.64 K	4.82 J/K/mol	–
9.26 K	5.6 J/K/mol	–
9.48 K	6.06 J/K/mol	–
9.98 K	6.73 J/K/mol	–
10 K	6.75 J/K/mol	–
10.55 K	7.4 J/K/mol	–
10.76 K	7.57 J/K/mol	–
11.09 K	8.13 J/K/mol	–
11.43 K	8.59 J/K/mol	–
12.2 K	9.56 J/K/mol	–
12.4 K	9.97 J/K/mol	–
13.02 K	11.12 J/K/mol	–
13.44 K	11.86 J/K/mol	–
13.52 K	11.96 J/K/mol	–
14.28 K	13.92 J/K/mol	–
14.41 K	14.32 J/K/mol	–
14.86 K	15.39 J/K/mol	–
15 K	15.69 J/K/mol	–
15.24 K	16.16 J/K/mol	–
15.97 K	17.16 J/K/mol	–
16.24 K	17.78 J/K/mol	–
16.42 K	18.22 J/K/mol	–
16.81 K	18.82 J/K/mol	–
17.75 K	20.23 J/K/mol	–
18.13 K	21.04 J/K/mol and 21.05 J/K/mol	–
18.35 K	21.29 J/K/mol	–
18.91 K	22.41 J/K/mol	–
19.3 K	22.84 J/K/mol	–
19.96 K	24.11 J/K/mol	–
20 K	24.16 J/K/mol	–
20.32 K	24.44 J/K/mol	–
20.36 K	25.02 J/K/mol	–
20.69 K	25.21 J/K/mol	–
20.91 K	25.52 J/K/mol	–
21.28 K	25.98 J/K/mol	–
21.33 K	26.05 J/K/mol	–
22.22 K	27.37 J/K/mol	–
22.85 K	28.05 J/K/mol	–
23.13 K	28.66 J/K/mol	–
23.5 K	29.01 J/K/mol	–
25 K	30.93 J/K/mol	–
25.43 K	31.5 J/K/mol	–
25.52 K	31.63 J/K/mol	–
25.66 K	31.94 J/K/mol	–
27.61 K	34.27 J/K/mol	–
28.08 K	34.74 J/K/mol	–
29.8 K	36.66 J/K/mol	–
30 K	36.88 J/K/mol	–
30.83 K	37.81 J/K/mol	–
32.02 K	39.23 J/K/mol	–
33.45 K	40.57 J/K/mol	–
34.29 K	41.49 J/K/mol	–
35.86 K	42.74 J/K/mol	–
36.6 K	43.58 J/K/mol	–
38.95 K	45.82 J/K/mol	–
40 K	46.88 J/K/mol	–
41.31 K	48.18 J/K/mol	–
43.74 K	50.35 J/K/mol	–
46.2 K	52.53 J/K/mol	–
48.69 K	54.78 J/K/mol	–
50 K	55.72 J/K/mol	–
51.22 K	56.59 J/K/mol	–
53.78 K	58.73 J/K/mol	–
56.38 K	60.57 J/K/mol	–
59 K	62.4 J/K/mol	–
60 K	63.1 J/K/mol	–
61.66 K	64.25 J/K/mol	–
64.34 K	66.1 J/K/mol	–
67.06 K	67.97 J/K/mol	–
69.79 K	69.75 J/K/mol	–
70 K	69.88 J/K/mol	–
72.55 K	71.4 J/K/mol	–
75.33 K	73.12 J/K/mol	–
78.14 K	74.71 J/K/mol	–
80 K	75.73 J/K/mol	–
80.95 K	76.25 J/K/mol	–
83.79 K	77.97 J/K/mol	–
84.19 K	78.04 J/K/mol	–
86.63 K	79.59 J/K/mol	–
87.47 K	79.75 J/K/mol	–
89.49 K	81.07 J/K/mol	–
90 K	81.22 J/K/mol	–
90.65 K	81.41 J/K/mol	–
92.36 K	82.26 J/K/mol	–
93.74 K	82.91 J/K/mol	–
95.25 K	83.54 J/K/mol	–
96.75 K	84.24 J/K/mol	–
98.15 K	85.01 J/K/mol	–
99.69 K	85.65 J/K/mol	–
100 K	85.83 J/K/mol	–
101.04 K	86.47 J/K/mol	–
102.61 K	87.46 J/K/mol	–
105.54 K	88.95 J/K/mol	–
108.48 K	90.22 J/K/mol	–
110 K	90.89 J/K/mol	–
111.43 K	91.51 J/K/mol	–
114.39 K	92.81 J/K/mol	–
117.36 K	94.15 J/K/mol	–
120 K	95.33 J/K/mol	–
120.34 K	95.48 J/K/mol	–
123.32 K	96.75 J/K/mol	–
126.31 K	98.04 J/K/mol	–
129.31 K	99.34 J/K/mol	–
130 K	99.63 J/K/mol	–
132.31 K	100.61 J/K/mol	–
135.32 K	101.87 J/K/mol	–
138.33 K	103.08 J/K/mol	–
140 K	103.77 J/K/mol	–
141.34 K	104.32 J/K/mol	–
144.36 K	105.54 J/K/mol	–
147.39 K	106.84 J/K/mol	–
150 K	107.74 J/K/mol	–
150.41 K	107.89 J/K/mol	–
153.44 K	109.1 J/K/mol	–
156.48 K	110.25 J/K/mol	–
159.51 K	111.32 J/K/mol	–
160 K	111.51 J/K/mol	–
162.55 K	112.49 J/K/mol	–
165.6 K	113.63 J/K/mol	–
168.64 K	114.79 J/K/mol	–
170 K	115.31 J/K/mol	–
171.69 K	115.96 J/K/mol	–
174.73 K	117.13 J/K/mol	–
177.78 K	118.3 J/K/mol	–
180 K	119.09 J/K/mol	–
180.84 K	119.39 J/K/mol	–
183.89 K	120.53 J/K/mol	–
186.94 K	121.72 J/K/mol	–
190 K	122.82 J/K/mol	–
193.05 K	123.91 J/K/mol	–
196.11 K	125.07 J/K/mol	–
199.17 K	126.16 J/K/mol	–
200 K	126.45 J/K/mol	–
202.22 K	127.16 J/K/mol	–
205.28 K	128.31 J/K/mol	–
208.34 K	129.4 J/K/mol	–
210 K	130.05 J/K/mol	–
211.4 K	130.6 J/K/mol	–
214.46 K	131.79 J/K/mol	–
217.52 K	132.78 J/K/mol	–
220 K	133.7 J/K/mol	–
220.58 K	133.9 J/K/mol	–
223.64 K	135.03 J/K/mol	–
226.7 K	136.15 J/K/mol	–
229.77 K	137.26 J/K/mol	–
230 K	137.34 J/K/mol	–
232.83 K	138.31 J/K/mol	–
235.89 K	139.48 J/K/mol	–
238.95 K	140.62 J/K/mol	–
240 K	141.01 J/K/mol	–
242.01 K	141.75 J/K/mol	–
245.07 K	142.87 J/K/mol	–
248.12 K	143.98 J/K/mol	–
250 K	144.67 J/K/mol	–
251.17 K	145.1 J/K/mol	–
254.22 K	146.19 J/K/mol	–
257.27 K	147.31 J/K/mol	–
260 K	148.3 J/K/mol	–
260.32 K	148.41 J/K/mol	–
263.36 K	149.52 J/K/mol	–
266.41 K	150.63 J/K/mol	–
269.46 K	151.81 J/K/mol	–
270 K	152.01 J/K/mol	–
272.51 K	152.93 J/K/mol	–
275.56 K	153.96 J/K/mol	–
278.61 K	155.09 J/K/mol	–
280 K	155.47 J/K/mol	–
281.65 K	155.93 J/K/mol	–
284.69 K	157.08 J/K/mol	–
287.74 K	158.17 J/K/mol	–
290 K	158.9 J/K/mol	–
290.78 K	159.14 J/K/mol	–
293.81 K	160 J/K/mol	–
296.86 K	161.12 J/K/mol	–
298.15 K	161.57 J/K/mol	–
299.91 K	162.28 J/K/mol	–
300 K	162.32 J/K/mol	–
302.95 K	163.09 J/K/mol	–
306 K	164.04 J/K/mol	–
306.85 K	164.3 J/K/mol	–
309.04 K	165.03 J/K/mol	–
310 K	165.35 J/K/mol	–
310.25 K	165.42 J/K/mol	–
312.08 K	166.05 J/K/mol	–
313.63 K	166.52 J/K/mol	–
315.12 K	167.1 J/K/mol	–
317 K	167.67 J/K/mol	–
320 K	168.98 J/K/mol	–
320.37 K	169.11 J/K/mol	–
323.72 K	169.81 J/K/mol	–
327.06 K	170.85 J/K/mol	–
330 K	172.33 J/K/mol	–
330.4 K	172.47 J/K/mol	–
333.72 K	173.45 J/K/mol	–
337.03 K	174.6 J/K/mol	–
340 K	175.62 J/K/mol	–
340.34 K	175.73 J/K/mol	–
343.63 K	176.72 J/K/mol	–
346.92 K	178.18 J/K/mol	–
350 K	179.02 J/K/mol	–
350.2 K	178.96 J/K/mol	–
353.46 K	180.41 J/K/mol	–
356.72 K	181 J/K/mol	–
357.65 K	181.37 J/K/mol	–
359.97 K	182.49 J/K/mol	–
360 K	182.5 J/K/mol	–
360.9 K	182.62 J/K/mol	–
363.22 K	183.54 J/K/mol	–
364.15 K	183.8 J/K/mol	–
366.45 K	185.01 J/K/mol	–
367.38 K	185.01 J/K/mol	–
369.68 K	185.57 J/K/mol	–
370 K	185.85 J/K/mol	–
370.61 K	186.07 J/K/mol	–
372.9 K	186.88 J/K/mol	–
373.83 K	187.15 J/K/mol	–
376.11 K	187.95 J/K/mol	–
377.04 K	188.3 J/K/mol	–
379.31 K	189.23 J/K/mol	–
380 K	189.36 J/K/mol	–
380.25 K	189.56 J/K/mol	–
390 K	192.86 J/K/mol	–
394.96 K	194.6 J/K/mol	220.84 J/K/mol
399 K	–	222.12 J/K/mol
400 K	–	222.34 J/K/mol
401.94 K	–	222.86 J/K/mol
404.87 K	–	223.83 J/K/mol
407.79 K	–	224.32 J/K/mol
410 K	–	225.31 J/K/mol
410.72 K	–	225.87 J/K/mol
413.63 K	–	226.31 J/K/mol
